Test results reported in the C3SDB collision cross section collection.

Assays:
[1] = instrument: DT, single field, calibrated with Agilent tune mix (Agilent)
[2] = instrument: DT, single field, calibrated with Agilent tune mix (Agilent); remark: listed apart in the source

SMILES	collision cross section (N2) ([2]; [M-H]-) [Å²]	collision cross section (N2) ([2]; [M+H]+) [Å²]	further results
CCCCCCCCCCCCCCCCCC(=O)N[C@@H](CO)[C@H](O)CCCCCCCCCCCCCCC [Cer(36:0)]			collision cross section (N2) ([1]; [M+HCOO]-): 259 Å²; collision cross section (N2) ([1]; [M+H]+): 262 Å²; collision cross section (N2) ([1]; [M+Na]+): 267.7 Å²; collision cross section (N2) ([1]; [M-H]-): 249 Å²
CCCCCCCCCCCCC=CC[C@@H](O)[C@H](CO)NC(=O)CCCCCCCCCCCCCCCCCC [Cer(37:1)]			collision cross section (N2) ([1]; [M+HCOO]-): 258.9 Å²; collision cross section (N2) ([1]; [M+H]+): 263.4 Å²; collision cross section (N2) ([1]; [M+Na]+): 269.8 Å²
CCCCCCCCCCCCCCCCCCCC(=O)N[C@@H](CO)[C@H](O)CCCCCCCCCCCCCCC [Cer(38:0)]			collision cross section (N2) ([1]; [M+HCOO]-): 265.2 Å²; collision cross section (N2) ([1]; [M+H]+): 267.9 Å²
CCCCCCCCCCCCC=CC[C@@H](O)[C@H](CO)NC(=O)CC=CCCCCCCCCCCCCCCCC [Cer(38:2)]			collision cross section (N2) ([1]; [M+H]+): 262.4 Å²; collision cross section (N2) ([1]; [M+Na]+): 262.1 Å²
CCCCCCCCCCCCC=CC[C@@H](O)[C@H](CO)NC(=O)CC=CCCCCCCCCCCCCCCCCCC [Cer(40:2)]			collision cross section (N2) ([1]; [M+H]+): 270.3 Å²; collision cross section (N2) ([1]; [M+Na]+): 271.4 Å²; collision cross section (N2) ([1]; [M-H]-): 259.8 Å²
CCCCCCCCCCCCC=CC[C@@H](O)[C@H](CO)NC(=O)CCCCCCCCCCCCCCCCCCCCCCCC [Cer(43:1)]			collision cross section (N2) ([1]; [M+H]+): 282 Å²
CCCCCCCCCCCCC=CC[C@@H](O)[C@H](CO)NC(=O)CC=CCCCCCCCCCCCCCCCCCCCCCC [Cer(44:2)]			collision cross section (N2) ([1]; [M+H]+): 283.5 Å²
CCCCCCCC/C=C\CCCCCCCCCCCCCC(=O)O [Nervonic acid]	196.32		collision cross section (N2) ([2]; [M+H-H2O]+): 196.8 Å²
NC(=O)c1ccc[n+]([C@@H]2O[C@H](COP(=O)([O-])OP(=O)(O)OC[C@H]3O[C@@H](n4cnc5c(N)ncnc54)[C@H](O)[C@@H]3O)[C@@H](O)[C@H]2O)c1 [Nicotinamide adenine dinucleotide (NAD)]		226.7	
O=C(O)c1ccc[n+]([C@@H]2O[C@H](COP(=O)(O)O)[C@@H](O)[C@H]2O)c1 [Nicotinate D-ribonucleotide]		164.8	
Nc1ncnc2c1ncn2[C@@H]1O[C@H](COP(=O)(O)OP(=O)(O)OC[C@H]2O[C@@H]([n+]3cccc(C(=O)O)c3)[C@H](O)[C@@H]2O)[C@@H](O)[C@H]1O [Nicotinic acid adenine dinucleotide]			collision cross section (N2) ([2]; [M+2Na-3H]-): 238.49 Å²
O=C(O)CNC(=O)c1cccnc1 [Nicotinuric acid]	138.08	143.6	
N[C@@H](CCOP(=O)(O)O)C(=O)O [O-Phospho-L-homoserine]			collision cross section (N2) ([2]; [M+Na]+): 141.6 Å²
CCCCCCCC/C=C\CCCCCCCC(=O)SCCNC(=O)CCNC(=O)[C@H](O)C(C)(C)COP(=O)(O)OP(=O)(O)OC[C@H]1O[C@@H](n2cnc3c(N)ncnc32)[C@H](O)[C@@H]1OP(=O)(O)O [Oleoyl-CoA]	298.79	299.4	
O=c1nc2[nH][nH]cc-2c(=O)[nH]1 [Oxypurinol]	120.1	126.7	
CC(C)(CO)[C@@H](O)C(=O)NCCC(=O)NCCS [Pantetheine]			collision cross section (N2) ([2]; [M+H-H2O]+): 164.6 Å²; collision cross section (N2) ([2]; [M+Na-2H]-): 164.94 Å²
CC(C)(CO)[C@@H](O)C(=O)NCCCO [Pantothenol]	141.49	144.7	
CCCCCCCCC(=O)O [Pelargonic acid]	143.33		
CCCCCCCCCCCCCCC(=O)O [Pentadecanoic Acid]	162.72		
O=C(O)C#Cc1ccccc1 [Phenylpropiolic acid]			collision cross section (N2) ([2]; [M+H-H2O]+): 121.2 Å²
O=C(O)CNC(=O)CCc1ccccc1 [Phenylpropionylglycine]	153.3		collision cross section (N2) ([2]; [M+Na]+): 145.5 Å²
O=C(O)CCCCCC(=O)O [Pimelic acid]	129.29		
NCc1[nH]cc(CCC(=O)O)c1CC(=O)O [Porphobilinogen]	146.22		collision cross section (N2) ([2]; [M+Na]+): 148.1 Å²
O=C(O)C(=O)CC1(C(=O)O)C=CC(O)C=C1 (centres undefined) [Prephenate]			collision cross section (N2) ([2]; [M+Na]+): 155 Å²
CCC(=O)NCC(=O)O [Propionylglycine]	126.93		
O=c1[nH]cc([C@@H]2O[C@H](CO)[C@@H](O)[C@H]2O)c(=O)[nH]1 [Pseudouridine]	145.23		collision cross section (N2) ([2]; [M+Na]+): 159 Å²

SMILES	collision cross section (N2) ([2]; [M-H]-) [Å²]	collision cross section (N2) ([2]; [M+H]+) [Å²]	further results
Cc1ncc(COP(=O)(O)O)c(CO)c1O [Pyridoxine 5-phosphate]		150.5	
Nc1ncnc2c1ncn2[C@@H]1O[C@H](CSCC[C@H](N)C(=O)O)[C@@H](O)[C@H]1O [S-Adenosyl-L-homocysteine]		182.7	
C[S+](CC[C@H](N)C(=O)[O-])C[C@H]1O[C@@H](n2cnc3c(N)ncnc32)[C@H](O)[C@@H]1O (some centres undefined) [S-Adenosylmethionine]		184.5	
CC(O)C(=O)SC[C@H](NC(=O)CC[C@H](N)C(=O)O)C(=O)NCC(=O)O (some centres undefined) [S-Lactoylglutathione]		187.7	collision cross section (N2) ([2]; [M+Na-2H]-): 176.59 Å²
O=C(O)CCCCCCCCC(=O)O [Sebacic acid]	141.9		
CC(C)=CCC/C(C)=C/CC/C(C)=C/CC/C=C(\C)CC/C=C(\C)CCC=C(C)C [Squalene]		210.9	
O=C(O)CCCCCCC(=O)O [Suberic acid]	133.2		
O=C(O)CCCCCCC(=O)NCC(=O)O [Suberylglycine]	146.81		collision cross section (N2) ([2]; [M+Na]+): 153.7 Å²
O=C(O)C(O)C(O)C(=O)O (centres undefined) [Tartaric acid]	115.46		
C[C@H](CCC(=O)NCCS(=O)(=O)O)[C@H]1CC[C@H]2[C@@H]3[C@H](O)C[C@@H]4C[C@H](O)CC[C@]4(C)[C@H]3C[C@H](O)[C@]12C [Taurocholate]	205.82		collision cross section (N2) ([2]; [M+Na]+): 211.2 Å²
Nc1nc(=O)c2c([nH]1)NCC(CNc1ccc(C(=O)N[C@@H](CCC(=O)O)C(=O)O)cc1)N2 (some centres undefined) [Tetrahydrofolate]	195.36		
Cc1ncc(C[n+]2csc(CCOP(=O)(O)O)c2C)c(N)n1 [Thiamine monophosphate]		169.7	
O=C(O)/C=C/CCCCCCCCC(=O)O [Traumatic Acid]	149.85		collision cross section (N2) ([2]; [M+Na]+): 161.9 Å²
NCCc1c[nH]c2ccccc12 [Tryptamine]	131.55		collision cross section (N2) ([2]; [M+H-H2O]+): 125.1 Å²
NCCc1ccc(O)cc1 [Tyramine]	129.74		
COC1=C(OC)C(=O)C(C/C=C(\C)CCC=C(C)C)=C(C)C1=O [Ubiquinone-2]		174.3	
O=c1ccn([C@@H]2O[C@H](COP(=O)(O)OP(=O)(O)O)[C@@H](O)[C@H]2O)c(=O)[nH]1 [Uridine 5'-diphosphate]		176.5	
O=C(O)[C@H]1O[C@H](OP(=O)(O)OP(=O)(O)OC[C@H]2O[C@@H](n3ccc(=O)[nH]c3=O)[C@H](O)[C@@H]2O)[C@H](O)[C@@H](O)[C@@H]1O [Uridine 5'-diphosphoglucuronic acid]			collision cross section (N2) ([2]; [M+Na-2H]-): 201.6 Å²; collision cross section (N2) ([2]; [M+Na]+): 210.1 Å²
COc1cc(C(=O)O)ccc1O [Vanillic acid]		136.2	
O=c1[nH]c(=O)c2ncn([C@@H]3O[C@H](COP(=O)(O)O)[C@@H](O)[C@H]3O)c2[nH]1 [Xanthylic acid]	164.74	174.7	
O=P(O)(O)O[C@H]1O[C@H](CO)[C@@H](O)[C@H](O)[C@H]1O [alpha-D-Glucose 1-phosphate]	145.48		collision cross section (N2) ([2]; [M+Na]+): 158 Å²
CC(=O)NC(CCC(N)=O)C(=O)O [alpha-N-Acetyl-L-glutamine]	136.83		collision cross section (N2) ([2]; [M+Na]+): 144.2 Å²
Nc1ccn([C@H]2C[C@H](O)[C@@H](COP(=O)(O)OP(=O)(O)OP(=O)(O)O)O2)c(=O)n1 [dCTP]		184.9	
N[C@@H](CCC(=O)N[C@@H](Cc1ccccc1)C(=O)O)C(=O)O [gamma-Glutamylphenylalanine]		168.2	
CC(C)[C@H](NC(=O)CC[C@H](N)C(=O)O)C(=O)O [gamma-Glutamylvaline]		160.1	
O=C(O)Cc1ccc(O)cc1 [p-Hydroxyphenylacetic acid]	126.65		
